In a melting point compilation (Tetko et al.; mined from patent text by program, amines drawn as free bases though some values may be those of a salt):

First: O=C(O)CNS(=O)(=O)c1ccc(N2CCC(c3ccccc3)CC2)cc1
Second: O=C(O)c1ccc(-n2c(-c3ccccc3)cc3c2CCCC3)cc1
The melting point of the first is lower: 154 to 156 °C for the first, 244 to 246 °C for the second.

Compared with `CCCOc1ccc(OC)cc1-c1ncc(C(=O)OCC)c(=O)[nH]1`, `CCOC(=O)c1c([N+](=O)[O-])ccc(OC)c1OC` is lower in melting point: 124 to 126 °C for the first, 70 to 72 °C for the second.

Compared with `COc1ccc(Nc2cncc(-c3cccc(Nc4ccccn4)c3)c2)cc1`, `CC(O)c1ccc(-c2ccnc(Nc3ccc4c(c3)OCCO4)c2)cc1` (stereo unspecified) is lower in melting point: 161 to 165 °C for the first, 55.9 to 61.5 °C for the second.

First: CCCCCCCCCCCCCCOc1ccc(OCc2ccccc2)c(C(=O)O)c1
Second: CC(C)(C)C(=O)Nc1cc(OCc2ccccc2)c(OCc2ccccc2)cc1N
The melting point of the first is lower: 73 to 74 °C for the first, 115 °C for the second.

`CSc1nccc(-n2nnc3ccccc32)n1` and `Oc1ccc2nc(-c3ccccc3)cc(Cl)c2c1` cannot be ordered by melting point: 180 to 182 °C for the first, 180 to 181 °C for the second.

First: CSc1ncc2c(n1)C(C)CNN(C)C2=O (stereo unspecified)
Second: CC1CC(=O)NN=C1c1ccc(NCC(C)(C)[N+](=O)[O-])cc1 (stereo unspecified)
The melting point of the first is lower: 153 to 155 °C for the first, 187 to 189 °C for the second.

`COC(=O)c1ccc(Cc2cn(C)c3ccc(NC(=O)NC4CCCC4)cc23)c(OC)c1` and `CCC(CC)CNC(=O)c1ccc2cccc(Cc3ccc(C(=O)NS(=O)(=O)c4ccccc4)cc3OC)c2c1` cannot be ordered by melting point: 210 to 212 °C for the first, 210 to 211 °C for the second.

First: CCOC(CNC(=O)Nc1ccc(-n2cncn2)cc1)OCC
Second: CSCC[C@@H](NC(=O)OC(C)(C)C)C(=O)Nc1ccc(N2C[C@H](CNC(=O)c3ccc(Cl)s3)OC2=O)cc1
The melting point of the first is lower: 139 to 140 °C for the first, 183 °C for the second.

Compared with `CC(=O)Oc1cc(Cl)c(Cl)c(Cl)c1N1CC(O)CC1=O` (stereo unspecified), `COC(=O)C1CCN2C(=O)C(=O)c3cc(Cl)cc1c32` (stereo unspecified) is higher in melting point: 84 to 86 °C for the first, 132 to 133 °C for the second.

First: CN1C(=O)NC(=O)C1=Cc1cc(Br)c(O)c(Br)c1
Second: O=C1NC(=S)NC(=O)C1=Cc1ccc([N+](=O)[O-])s1
The melting point of the first is lower: 271 to 277 °C for the first, 285 °C for the second.

First: CS(=O)(=O)c1c(Cl)nc(N)nc1Cl
Second: CNC(=O)Cn1c(-c2ccc(Cl)cc2)nc2cccnc21
The melting point of the first is higher: 275 °C for the first, 238 °C for the second.

First: Nc1nc2c(s1)CCN(CC=Cc1ccccc1)CC2
Second: Nc1nc2c(sc(=O)n2Cc2ccccc2)c(=O)[nH]1
The melting point of the first is lower: 120 to 124 °C for the first, greater than 320 °C for the second.

First: CNS(=O)(=O)c1ccc(C=C2C(C)=C(CC(=O)OC)c3cc(OC)ccc32)cc1
Second: COc1ccc(C(=O)Nc2ccc(F)cc2)cc1NS(=O)(=O)c1ccc(C#N)cc1
The melting point of the first is higher: 167 to 169 °C for the first, 131 to 135 °C for the second.

Compared with `O=C(O)c1cccc(-c2nc(-c3ccc(F)c(F)c3)cs2)c1`, `Cc1ccnc(Nc2nc(-c3ccc(OC(F)(F)F)cc3)cs2)c1` is higher in melting point: 255 to 256 °C for the first, 275 to 282 °C for the second.

First: O=C(OC[C@@H]1CC(c2ccc(-c3ccc(N4C[C@H](Cn5ccnn5)OC4=O)cc3F)cn2)=NO1)c1cnccn1
Second: O=C1O[C@@H](COc2cnsn2)CN1c1ccc(C2=CCOCC2)c(F)c1
The melting point of the first is higher: 205 to 226 °C for the first, 146 to 148 °C for the second.

Compared with `CCCn1c(=O)c2[nH]c(/C=C/c3ccc4c(c3)OCCO4)nc2n(CCC)c1=O`, `CCn1c(=O)c2c(nc(/C=C/c3cc(OC)c(OC(=O)c4ccccc4)c(OC)c3)n2C)n(CC)c1=O` is lower in melting point: greater than 275 °C for the first, 196 °C for the second.

First: Cc1c[nH]c(CCC(=O)O)c1
Second: Cc1ccc2c(c1)CC(=O)c1cc(CC(=O)O)ccc1O2
The melting point of the first is lower: 109 to 112 °C for the first, 154 to 155 °C for the second.

First: CSc1c(CC(C)(C)C(=O)O)n(Cc2ccc(Cl)cc2)c2ccc(C(C)C)cc12
Second: CSc1c(C(Cc2ccc(Cl)cc2)C(=O)O)ccc2c3ccccc3n(Cc3ccc(Cl)cc3)c12 (stereo unspecified)
The melting point of the first is higher: 143 to 144 °C for the first, 104 to 107 °C for the second.

First: CN(Cc1cccc(-c2ccc(CC3SC(=O)NC3=O)cc2)c1)C(=O)c1cccs1 (stereo unspecified)
Second: Cn1c(COc2ccc(CC3SC(=O)NC3=O)cc2)nc2ccc(Oc3cccc(NC(=O)NC45CC6CC(CC(C6)C4)C5)c3)cc21 (stereo unspecified)
The melting point of the first is lower: 160 °C for the first, 227 to 231 °C for the second.

First: COc1ccc(-c2coc(C(=O)NNC(=O)c3ccc(O)c(C#N)c3)c2-c2ccccc2)cc1
Second: OCC1(c2ccc(Cl)cc2)CC1c1ccc(-c2ccccc2)cc1 (stereo unspecified)
The melting point of the first is lower: 146 to 148 °C for the first, 168 to 170 °C for the second.

Compared with `CC(C)(C)OC(=O)N=C(N)N(CCc1ccc(OCCC2Oc3c(Cl)cc(Cl)cc3N(Cc3cccc(Cl)c3)C2=O)cc1)C(=O)OC(C)(C)C` (stereo unspecified), `CC(C)(C)OC(=O)NCCc1ccc(OCCC2Oc3ccccc3N(Cc3ccccc3Cl)C2=O)cc1` (stereo unspecified) is lower in melting point: 115 to 117 °C for the first, 108 to 111 °C for the second.

Compared with `Cc1cccc(N)c1C=C(Br)Br`, `Cc1cccc2c1CCCCC2=O` is higher in melting point: 42 to 43 °C for the first, 54 to 55 °C for the second.

Compared with `CC(=O)NC1(c2ccc(CN3CCN(c4cccc(F)n4)CC3)cc2)CC1`, `CNC(=NS(=O)(=O)N1CCCCC1)N1CC(c2ccccc2)C(c2ccc(Cl)cc2)=N1` (stereo unspecified) is higher in melting point: 135 to 136 °C for the first, 175 to 177 °C for the second.

Compared with `Clc1ccc2c(c1)CCc1cccnc1C2=C1CCN(Cc2cccnc2Cl)CC1`, `O=C1COc2ccc(-c3cccnc3-c3ccccc3)cc2N1` is higher in melting point: 56.6 to 60.2 °C for the first, 176 to 178 °C for the second.

First: Cc1ccnc(C(=O)c2[nH]c3ccc(Cl)cc3c2CC(=O)N2CCC(N)C2)c1 (stereo unspecified)
Second: COC(=O)C1Cc2c([nH]c3ccccc23)C(c2ccc(Cl)c(Cl)c2)N1 (stereo unspecified)
The melting point of the first is higher: 179 °C for the first, 90 to 92 °C for the second.

First: COc1cc(C)ccc1S(=O)(=O)NC(=O)C(c1cc(OC)c2c(c1)OCO2)c1cn(C)c2cc(C=O)ccc12 (stereo unspecified)
Second: CCn1cncc1/C=C/c1cn(-c2ccccc2)nc1OCc1ccc(OCc2nc(-c3ccc(CC(=O)O)cc3)oc2C)c(OC)c1
The melting point of the first is higher: 233 °C for the first, 149 to 150 °C for the second.

Compared with `COc1ccccc1C(C)NCC(=O)Nc1c(C(C)C)cccc1C(C)C` (stereo unspecified), `CCC(C)c1ccccc1SC1=C(O)CC(c2ccccc2)(c2ccccc2)OC1=O` (stereo unspecified) is higher in melting point: 68 to 70 °C for the first, 161 to 162 °C for the second.

Compared with `CC(C)(C)OC(=O)[C@H]1CC[C@@H](c2ccccc2)N1C(=O)CNC(=O)Nc1cccc(OCC(=O)O)c1` (racemic), `CC(C)(C)OC(=O)Nc1ccc(NC(=O)C(=O)N2CCC(Cc3ccccc3)CC2)cc1` is lower in melting point: 192 °C for the first, 177 to 179 °C for the second.

Compared with `CN(C)C=C(C=O)OCCO`, `CC(C)(C)OC(=O)N1CCC(NCc2ccccc2N)CC1` is lower in melting point: 148 to 150 °C for the first, 79 to 81 °C for the second.

First: CN1CCCC1c1ccc(Nc2cc(-c3cc(F)cc(N4CCc5c(sc6c5CCCC6)C4=O)c3CO)cn(C)c2=O)nc1 (stereo unspecified)
Second: CC(c1oc2ccccc2c(=O)c1-c1cccc(F)c1)n1nc(-c2ccc3cc[nH]c3c2)c2c(N)ncnc21 (stereo unspecified)
The melting point of the first is lower: 164 to 166 °C for the first, 222 to 225 °C for the second.

First: O=C(NCCO)c1cccc(-c2cccc3nn(Cc4cccc(F)c4)cc23)c1
Second: COc1ccc(-n2cnc3ccc(-c4nnc(CCc5cccc(F)c5)o4)cc32)cc1
The melting point of the first is higher: 187 to 188 °C for the first, 145 to 147 °C for the second.

Compared with `C=C(C(=C)c1cc(C)sc1C)c1cc(C)sc1C`, `O=C(O)Cc1ccc(Cc2nc3c(F)c(F)cc(F)c3s2)s1` is higher in melting point: 43 to 44 °C for the first, 132 to 133 °C for the second.

First: O=C1NCCN(c2ccc(OC(F)(F)C(F)F)cc2)C1=O
Second: N#Cc1ccc(O[C@H]2CC[C@H](NC(=O)Nc3ccc(OC(F)(F)F)cc3)CC2)cc1
The melting point of the first is higher: 240 to 242 °C for the first, 186 to 189 °C for the second.

First: Cc1nc(Nc2ccccc2)nc(C#N)c1C
Second: CCCOc1ccccc1-c1nc(O)cc(O)n1
The melting point of the first is lower: 181 to 184 °C for the first, 224 to 225 °C for the second.

First: CSCc1cc([N+](=O)[O-])ccc1N1C(=O)c2ccc(Cl)cc2C1=O
Second: O=[N+]([O-])c1cccc(P(=O)(O)O)c1
The melting point of the first is lower: 112 to 115 °C for the first, 148 to 155 °C for the second.

First: CC(=O)c1ccnnc1
Second: NC(=O)c1cccc(O)c1F
The melting point of the first is lower: 66.5 to 67.5 °C for the first, 196 to 197 °C for the second.

First: CC(C)(C)CCc1nn(-c2ccc(F)cc2F)c2c1C1CCC2C1 (stereo unspecified)
Second: COc1cc(F)c(-c2nn(C)c(C(F)(F)F)c2Cl)cc1[N+](=O)[O-]
The melting point of the first is lower: 54 to 57 °C for the first, 116 °C for the second.

First: Nc1cc2c(cc1C(=O)CNC(=O)C(F)(F)F)OCO2
Second: O=C(O)c1ccc(C(c2ccc(C(=O)O)c(C(=O)O)c2)(C(F)(F)F)C(F)(F)F)cc1C(=O)O
The melting point of the first is lower: 219 to 220 °C for the first, 231 to 234 °C for the second.

First: Nc1c(-c2cccc(Oc3ccccc3)c2)cnc2ncnn12
Second: O=c1[nH]c(=Cc2ccc(OCc3ccncc3)cn2)c(=O)[nH]c1=Cc1ccccc1
The melting point of the first is lower: 248 to 250 °C for the first, 254 to 255 °C for the second.

First: CC(C)C[C@H](NC(=O)[C@H](CS)C(F)(F)F)c1nnn[nH]1
Second: CN(C(=O)Nc1ccc(OC(F)(F)F)cc1)c1nc(OCC(F)(F)F)cc(OCC(F)(F)F)n1
The melting point of the first is higher: 183 to 184 °C for the first, 123 to 125 °C for the second.

First: CC(C)(C)OC(=O)NC(Cc1ccccc1)C(O)CNCC(O)C(Cc1ccc(OCCN2CCOCC2=O)cc1)NC(=O)OC(C)(C)C (stereo unspecified)
Second: CC(C)(C)OC(=O)CN1CCC(CNC(=O)N2CCN(C3CCN(C(=O)OC(C)(C)C)CC3)CC2)CC1
The melting point of the first is lower: 108 to 111 °C for the first, 131 to 133 °C for the second.

First: O=C(Nc1ccc(C(=O)N2CCc3nc(-c4ccccn4)[nH]c3-c3ccccc32)cc1)c1ccccc1-c1ccccc1
Second: CCn1c(C)c(C2(N(c3ccccc3)c3ccc(NC(C)=O)cc3)OC(=O)c3ccccc32)c2ccccc21 (stereo unspecified)
The melting point of the first is higher: 240 to 242 °C for the first, 93 to 116 °C for the second.

Compared with `O=[N+]([O-])c1cnn2c(-c3ccncc3)ccnc12`, `C=Cc1ccc(Cc2ccc(C=C)cc2)cc1` is lower in melting point: 241 to 244 °C for the first, 30 to 33 °C for the second.

First: O=C(NO)c1ccc(C(=O)NOCCC23CC4CC(CC(C4)C2)C3)cc1
Second: CCOC(=O)[C@@H]1C[C@H]([N+](=O)[O-])[C@@H](C(=O)O)[C@H](OC(CC)CC)[C@@H]1Sc1ccc(C)cc1
The melting point of the first is higher: 198 to 200 °C for the first, 135 to 136 °C for the second.

Compared with `CCN(CC)C(=O)OCC1CN(C(=O)c2cc(OC)c(OC)c(OC)c2)CCN1C(=O)c1cc(OC)c(OC)c(OC)c1` (stereo unspecified), `COC12CC(CCOC(=O)c3ccc[nH]3)CN(C)C1Cc1cn(C)c3cccc2c13` (stereo unspecified) is higher in melting point: 95.1 °C for the first, 148 to 149 °C for the second.

Compared with `CC(CCC(=O)C(C)(C)OO)C1CCC2C3CC=C4CC(O)CCC4(C)C3CCC12C` (stereo unspecified), `CC1OOC2CC1CC(=O)C2C` (stereo unspecified) is higher in melting point: 146 to 147 °C for the first, 160 °C for the second.

Compared with `CCNC(=S)NC1CCCc2ccccc21` (stereo unspecified), `Nc1cccc(NC(=O)C(=O)C(=O)O)c1` is higher in melting point: 120 to 122 °C for the first, 246 °C for the second.

First: O=Cc1ccc2c3ccccc3c3ccccc3c2c1
Second: C=CCN1Cc2nc3c(cnn3C=C)c(N)c2C1=O
The melting point of the first is lower: 160 to 162 °C for the first, 190 to 191 °C for the second.
